From the supplement of paper PMC10702517
± gives the standard deviation.
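Wherever chemical recovery from spiked human plasma is given: plasma spiked with over 400 chemicals, quantified by LC-HRMS and GC-HRMS via internal standard calibration against matrix-matched unspiked plasma extracts plus spike mix.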

Test: chemical recovery into PDMS from spiked human plasma; higher = better extraction
Conditions: pooled human plasma; extraction method: PES with PDMS; equilibration time (d): 6
In the case of CCC(C)OC(=O)N1CCCCC1CCO (configuration not stated) [Icaridin], the “chemical recovery into PDMS” value is reported as 35.5 ± 13%.
For CN(C)C(=O)Nc1ccc(Oc2ccc(Cl)cc2)cc1 [Chloroxuron], the “chemical recovery into PDMS” value was 42.8 ± 0.94%.
In the case of O=C1CC2(CCCCC2)CN1 [Gabapentin-Lactam], the “chemical recovery into PDMS” value is reported as 31.2 ± 1.6%.
In the case of CCOc1nc2cccc(C(=O)O)c2n1Cc1ccc(-c2ccccc2-c2nnn[nH]2)cc1 [Candesartan], the “chemical recovery into PDMS” value is reported as 0.00245 ± 0.0094%.
In the case of N#Cc1nn(-c2c(Cl)cc(C(F)(F)F)cc2Cl)c(N)c1C(F)(F)F [Fipronil desulfinyl], the “chemical recovery into PDMS” value is reported as 34.8 ± 0.66%.
With CCOCCN(C(=O)CCl)C(=C(C)C)c1ccccc1 [Pethoxamid] the “chemical recovery into PDMS” value was 43.2 ± 1.5%.
With CCCOC(=O)c1ccc(O)cc1 [Propylparaben] the “chemical recovery into PDMS” value was 14.8 ± 2%.
With CC(Cc1ccc(C(C)(C)C)cc1)CN1C[C@@H](C)O[C@@H](C)C1 (some centres not stated) [Fenpropimorph] the “chemical recovery into PDMS” value was 0.0427 ± 0.056%.
For CC(C)c1ccc(NC(=O)N(C)C)cc1 [Isoproturon], the “chemical recovery into PDMS” value was 40.4 ± 0.94%.
For CN(C/C=C/C#CC(C)(C)C)Cc1cccc2ccccc12 [Terbinafine], the “chemical recovery into PDMS” value was 0.00509 ± 0.0088%.
In the case of OC(Cn1cncn1)(Cn1cncn1)c1ccc(F)cc1F [Fluconazole], the “chemical recovery into PDMS” value is reported as 4.9 ± 1%.
In the case of c1ccc2c(c1)Cc1cc3ccccc3cc1-2 [Benzo(b)fluorene], the “chemical recovery into PDMS” value is reported as 110 ± 13%.
In the case of Cn1ncc(N)c(Cl)c1=O [Methyldesphenylchloridazon], the “chemical recovery into PDMS” value is reported as 1.24 ± 1.1%.
In the case of CCNc1nc(Cl)nc(NC(C)C)n1 [Atrazine], the “chemical recovery into PDMS” value is reported as 39.4 ± 0.96%.
For Cc1ccc(-c2cc(C(F)(F)F)nn2-c2ccc(S(N)(=O)=O)cc2)cc1 [Celecoxib], the “chemical recovery into PDMS” value was 8.5 ± 3.5%.
In the case of O=C(Nc1ccc(Cl)cc1)Nc1ccc(Cl)c(Cl)c1 [Triclocarban], the “chemical recovery into PDMS” value is reported as 8.27 ± 0.72%.
For NC(=O)N1c2ccccc2CC(O)c2ccccc21 (configuration not stated) [10,11-Dihydro-10-hydroxycarbamazepine], the “chemical recovery into PDMS” value was 1.45 ± 0.21%.
In the case of Clc1cc(-c2cc(Cl)c(Cl)c(Cl)c2Cl)c(Cl)c(Cl)c1Cl [PCB194], the “chemical recovery into PDMS” value is reported as 63.4 ± 5.4%.
With COCN(COC)c1nc(N(COC)COC)nc(N(COC)COC)n1 [Hexa(methoxymethyl)melamine] the “chemical recovery into PDMS” value was 41.9 ± 5.7%.

Test: chemical recovery from spiked human plasma; higher = better extraction
Conditions: pooled human plasma; extraction method: PES+SPE (3 d PDMS equilibration then HLB SPE)
Compound N#Cc1cc(Br)c(O)c(Br)c1 [Bromoxynil] has a chemical recovery of 51 ± 4.9%.
CC(C)(C)Nc1nc(N)nc(Cl)n1 [Desethylterbutylazine] gave a chemical recovery of 40.7 ± 4.8%.
COC(=O)Nc1nc2ccccc2[nH]1 [Carbendazim] gave a chemical recovery of 55.8 ± 5.5%.
In the case of CCc1cccc(C)c1N(C(=O)C(=O)O)C(C)COC (configuration not stated) [Metolachlor OA], the chemical recovery is reported as 40.1 ± 4.2%.
Work on CC/C(=N\OC/C=C/Cl)C1=C(O)CC(C2CCOCC2)CC1=O (configuration not stated) [Tepraloxydim] yielded a chemical recovery of 45.7 ± 5%.
Compound CC(C)NCC(O)COc1ccc(COCCOC(C)C)cc1 (configuration not stated) [Bisoprolol] has a chemical recovery of 26.7 ± 3.1%.
For Cc1ccc2[nH]nnc2c1 [5-Methyl-1H-benzotriazole], the chemical recovery was 54.6 ± 2.9%.
Work on CN1CCN(C2=Nc3cc(Cl)ccc3Nc3ccccc32)CC1 [Clozapine] yielded a chemical recovery of 0.74 ± 0.14%.
Cc1cccc(C)c1N(Cn1cccn1)C(=O)CCl [Metazachlor] gave a chemical recovery of 42.8 ± 5%.
With c1ccc2[nH]nnc2c1 [1H-Benzotriazole] the chemical recovery was 51.7 ± 3.9%.
With N#C/N=C1\SCCN1Cc1ccc(Cl)nc1 [Thiacloprid] the chemical recovery was 55.5 ± 5.8%.
Work on O=C1CC2(CCCCC2)CN1 [Gabapentin-Lactam] yielded a chemical recovery of 44.2 ± 6.2%.
With CCOc1nc2cccc(C(=O)O)c2n1Cc1ccc(-c2ccccc2-c2nnn[nH]2)cc1 [Candesartan] the chemical recovery was 41.3 ± 6.7%.
CCCOC(=O)c1ccc(O)cc1 [Propylparaben] showed a chemical recovery of 56.4 ± 4.7%.
With c1ccc2c(c1)-c1cccc3cccc-2c13 [Fluoranthene] the chemical recovery was 79.1 ± 25%.
CC(C)c1ccc(NC(=O)N(C)C)cc1 [Isoproturon] showed a chemical recovery of 46.2 ± 4.8%.
OC(Cn1cncn1)(Cn1cncn1)c1ccc(F)cc1F [Fluconazole] gave a chemical recovery of 43.8 ± 3.3%.
Compound c1ccc2c(c1)Cc1cc3ccccc3cc1-2 [Benzo(b)fluorene] has a chemical recovery of 57.9 ± 6.2%.
CCNc1nc(Cl)nc(NC(C)C)n1 [Atrazine] gave a chemical recovery of 43.7 ± 5.2%.
Compound NC(=O)N1c2ccccc2CC(O)c2ccccc21 (configuration not stated) [10,11-Dihydro-10-hydroxycarbamazepine] has a chemical recovery of 47.3 ± 4.9%.
In the case of Clc1cc(-c2cc(Cl)c(Cl)c(Cl)c2Cl)c(Cl)c(Cl)c1Cl [PCB194], the chemical recovery is reported as 38.3 ± 2.4%.
COCN(COC)c1nc(N(COC)COC)nc(N(COC)COC)n1 [Hexa(methoxymethyl)melamine] showed a chemical recovery of 38.3 ± 8.8%.

Same assay, conditions: pooled human plasma; extraction method: SPE only (HLB 96-well)
Compound N#Cc1cc(Br)c(O)c(Br)c1 [Bromoxynil] has a chemical recovery of 43.9 ± 2.5%.
CC(C)(C)Nc1nc(N)nc(Cl)n1 [Desethylterbutylazine] gave a chemical recovery of 42.1 ± 2.3%.
Work on COC(=O)Nc1nc2ccccc2[nH]1 [Carbendazim] yielded a chemical recovery of 58.8 ± 4.2%.
Compound CCc1cccc(C)c1N(C(=O)C(=O)O)C(C)COC (configuration not stated) [Metolachlor OA] has a chemical recovery of 35.7 ± 1.4%.
CC(C)CC(C)(O)C#CC(C)(O)CC(C)C (configuration not stated) [TMDD] showed a chemical recovery of 47.5 ± 6%.
Compound CNC(=O)CSP(=O)(OC)OC [Omethoate] has a chemical recovery of 12.4 ± 5.1%.
CC/C(=N\OC/C=C/Cl)C1=C(O)CC(C2CCOCC2)CC1=O (configuration not stated) [Tepraloxydim] gave a chemical recovery of 40.5 ± 2.5%.
CC(C)NCC(O)COc1ccc(COCCOC(C)C)cc1 (configuration not stated) [Bisoprolol] gave a chemical recovery of 42.2 ± 4%.
Work on Cc1ccc2[nH]nnc2c1 [5-Methyl-1H-benzotriazole] yielded a chemical recovery of 46.3 ± 3%.
Work on CN1CCN(C2=Nc3cc(Cl)ccc3Nc3ccccc32)CC1 [Clozapine] yielded a chemical recovery of 39.1 ± 3.5%.
Compound Cc1cccc(C)c1N(Cn1cccn1)C(=O)CCl [Metazachlor] has a chemical recovery of 38.6 ± 2.5%.
c1ccc2[nH]nnc2c1 [1H-Benzotriazole] gave a chemical recovery of 48.2 ± 2.7%.
N#C/N=C1\SCCN1Cc1ccc(Cl)nc1 [Thiacloprid] showed a chemical recovery of 43.4 ± 3.5%.
Compound CSc1nc(NC2CC2)nc(NC(C)(C)C)n1 [Irgarol] has a chemical recovery of 55.7 ± 4%.
Compound Cc1ccccc1N [o-Toluidine] has a chemical recovery of 6.06 ± 3.9%.
Clc1ccc(COC(Cn2ccnc2)c2ccc(Cl)cc2Cl)c(Cl)c1 (configuration not stated) [Miconazole] gave a chemical recovery of 43.2 ± 6.1%.
For CCC(C)OC(=O)N1CCCCC1CCO (configuration not stated) [Icaridin], the chemical recovery was 45 ± 5.5%.
CN(C)C(=O)Nc1ccc(Oc2ccc(Cl)cc2)cc1 [Chloroxuron] showed a chemical recovery of 36.4 ± 1.9%.
In the case of O=C1CC2(CCCCC2)CN1 [Gabapentin-Lactam], the chemical recovery is reported as 49.4 ± 1.6%.
CCOc1nc2cccc(C(=O)O)c2n1Cc1ccc(-c2ccccc2-c2nnn[nH]2)cc1 [Candesartan] gave a chemical recovery of 42 ± 8%.
For N#Cc1nn(-c2c(Cl)cc(C(F)(F)F)cc2Cl)c(N)c1C(F)(F)F [Fipronil desulfinyl], the chemical recovery was 30.2 ± 6.1%.
In the case of CCCOC(=O)c1ccc(O)cc1 [Propylparaben], the chemical recovery is reported as 43.1 ± 2.1%.
c1ccc2c(c1)-c1cccc3cccc-2c13 [Fluoranthene] gave a chemical recovery of 6.27 ± 1.4%.
CC(C)c1ccc(NC(=O)N(C)C)cc1 [Isoproturon] showed a chemical recovery of 43.1 ± 2.7%.
In the case of CN(C/C=C/C#CC(C)(C)C)Cc1cccc2ccccc12 [Terbinafine], the chemical recovery is reported as 46.4 ± 1%.
For c1ccc2c(c1)Cc1cc3ccccc3cc1-2 [Benzo(b)fluorene], the chemical recovery was 1.4 ± 0.48%.
CCNc1nc(Cl)nc(NC(C)C)n1 [Atrazine] showed a chemical recovery of 41.5 ± 2.1%.
Compound Cc1ccc(-c2cc(C(F)(F)F)nn2-c2ccc(S(N)(=O)=O)cc2)cc1 [Celecoxib] has a chemical recovery of 33.2 ± 6.9%.
O=C(Nc1ccc(Cl)cc1)Nc1ccc(Cl)c(Cl)c1 [Triclocarban] gave a chemical recovery of 35 ± 5%.
With NC(=O)N1c2ccccc2CC(O)c2ccccc21 (configuration not stated) [10,11-Dihydro-10-hydroxycarbamazepine] the chemical recovery was 49.1 ± 5.4%.
For Clc1cc(-c2cc(Cl)c(Cl)c(Cl)c2Cl)c(Cl)c(Cl)c1Cl [PCB194], the chemical recovery was 0.915 ± 0.53%.

Same assay, conditions: pooled human plasma; extraction method: SPE only (HLB 96-well), PES comparison experiment
Work on N#Cc1cc(Br)c(O)c(Br)c1 [Bromoxynil] yielded a chemical recovery of 59.5 ± 6.2%.
CC(C)(C)Nc1nc(N)nc(Cl)n1 [Desethylterbutylazine] showed a chemical recovery of 46.9 ± 5.4%.
For COC(=O)Nc1nc2ccccc2[nH]1 [Carbendazim], the chemical recovery was 51.3 ± 6.5%.
For C[C@]12CC[C@H]3[C@@H](CCC4=CC(=O)CC[C@@]43C)[C@@H]1CC[C@@H]2O [Testosterone], the chemical recovery was 52.8 ± 8.8%.
CCc1cccc(C)c1N(C(=O)C(=O)O)C(C)COC (configuration not stated) [Metolachlor OA] gave a chemical recovery of 54.1 ± 5.2%.
In the case of C[C@]12C=CC(=O)C=C1CC[C@@H]1[C@@H]2C(=O)C[C@@]2(C)[C@H]1CC[C@]2(O)C(=O)CO [Prednisone], the chemical recovery is reported as 45.5 ± 5.8%.
For CNC(=O)CSP(=O)(OC)OC [Omethoate], the chemical recovery was 40.1 ± 8.6%.
CC/C(=N\OC/C=C/Cl)C1=C(O)CC(C2CCOCC2)CC1=O (configuration not stated) [Tepraloxydim] showed a chemical recovery of 51.8 ± 3%.
With CC(C)NCC(O)COc1ccc(COCCOC(C)C)cc1 (configuration not stated) [Bisoprolol] the chemical recovery was 47.4 ± 6.3%.
Cc1ccc2[nH]nnc2c1 [5-Methyl-1H-benzotriazole] gave a chemical recovery of 51.7 ± 8.2%.
